Source: patent US20240299339A1, “COMPOSITION FOR SUPPRESSING MUSCLE DAMAGE” (OTSUKA PHARMACEUTICAL CO., LTD., priority 2021, published 2024)

Test: Verification of function of KMP using 400-m run: blood markers in healthy subjects
Assay type: in vivo, human
Conditions: 16 healthy subjects (20 to 22 years old); single dose of capsule food containing 10 mg of KMP, 3 h before two 400-m full-speed runs 90 min apart; vs placebo
Procedure: According to usual methods, blood samples were taken, and the concentration of each blood marker was measured. […] It is known that blood myoglobin is detected with muscle fiber damage and that its concentration increases with muscle fiber damage (J. Appl. Physiol. 83 (4): 1076-1082, 1997).
The capsule foods used in the test were prepared according to the following procedures. Quinoa grains were extracted twice with 50% aqueous ethanol at 70° C., followed by concentration under reduced pressure. To a solution obtained by purifying the resultant with resin, Aromase H2 (produced by Amano Enzyme, Inc.) was added, and the enzyme was allowed to act (conversion into aglycone) while stirring at 50° C. The resulting reaction liquid was heated to 100° C. and maintained for 15 minutes to inactivate the enzyme. Thereafter, the treated liquid was freeze-dried to give an ethanol extraction powder. To the powder, starch was added in an amount equal to the amount of the powder (on a weight basis), followed by mixing. Capsules were filled with the resulting mixture in an amount of 116 mg (including 2.5 mg of kaempferol) per capsule. The subjects ingested four capsules (10 mg of kaempferol in total) at one time. The food used as the placebo was obtained by filling capsules with only starch.

O=c1c(O)c(-c2ccc(O)cc2)oc2cc(O)cc(O)c12 [KMP, Kaempferol]
blood myoglobin level after running at full speed: significantly lower
